From patent US12552753B2, “Methods and compositions for targeting Tregs using CCR8 inhibitors” (Nanjing Immunophage Biomedical Co., Ltd., priority 2020, dated 2026)
Where a name gives a salt, the structure may show the parent alone.

Each compound was assayed against CCR8 (Homo sapiens, UniProt P51685) (assay: Tango assay (Tango-CCR8-Gal4-CHO-K1 cells, CCL1-stimulated, ONE-Glo luminescence)). Settings: Tango Assay IC50, Inhibition of CCR8 Tango cell in vitro.
CCR8, sequence (P51685 whole entry, the tested form may be a part): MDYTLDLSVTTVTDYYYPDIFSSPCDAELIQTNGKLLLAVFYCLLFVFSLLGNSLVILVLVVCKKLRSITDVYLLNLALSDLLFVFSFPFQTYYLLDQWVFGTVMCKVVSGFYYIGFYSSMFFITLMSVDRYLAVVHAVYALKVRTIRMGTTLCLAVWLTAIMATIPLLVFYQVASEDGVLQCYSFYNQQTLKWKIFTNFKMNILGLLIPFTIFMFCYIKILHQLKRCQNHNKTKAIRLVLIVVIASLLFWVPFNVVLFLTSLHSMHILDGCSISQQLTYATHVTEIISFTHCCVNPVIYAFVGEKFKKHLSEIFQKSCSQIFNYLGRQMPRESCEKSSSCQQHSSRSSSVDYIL

Row | IC50 [nM] | Structure (SMILES)
1 | > 100000 | Cc1ccccc1C(=O)Nc1cc(F)c(S(=O)(=O)NC2CCNCC2)cc1Cl [Compound 311, N-(2-chloro-5-fluoro-4-(N-(piperidin-4-yl)sulfamoyl)phenyl)-2-methylbenzamide hydrochloride]
2 | > 10000 | CCCC(=O)N1CCC(NS(=O)(=O)c2ccc(Nc3cc(C)ncn3)c3ccccc23)CC1 [Compound 116, N-(1-butyrylpiperidin-4-yl)-4-((6-methylpyrimidin-4-yl)amino)naphthalene-1-sulfonamide]
3 | > 10000 | Cc1ccccc1C(=O)Nc1ccc(S(=O)(=O)NC(C)C(=O)N2CCC(C)CC2)c2ccccc12 (centres unmarked) [Compound 83, 2-methyl-N-(4-(N-(1-(4-methylpiperidin-1-yl)-1-oxopropan-2-yl)sulfamoyl)naphthalen-1-yl)benzamide]
4 | 3.2 | Cc1ccccc1C(=O)Nc1ccc(S(=O)(=O)NC(C)C23CCC(CC2)CC3)c2ccccc12 (centres unmarked) [Compound 132, N-(4-(N-(1-(bicyclo[2.2.2]octan-1-yl)ethyl)sulfamoyl)naphthalen-1-yl)-2-methylbenzamide]
5 | 15 | Cc1ccccc1C(=O)Nc1cc(F)c(S(=O)(=O)N[C@H](C)C2CCNCC2)cc1Cl [Compound 242A, (R)-N-(2-chloro-5-fluoro-4-(N-(1-(piperidin-4-yl)eth-yl)sulfamoyl)phen-yl)-2-methylbenzamide hydrochloride]
6 | 1300 | Cc1cc(S(=O)(=O)N[C@H](C)C2CCN(C(=O)OC(C)(C)C)CC2)c(Cl)cc1NC(=O)c1ccccc1C [Compound 168, (R)-tert-butyl 4-(1-(2-chloro-5-methyl-4-(2-methylbenzamido)phen-ylsulfonamido)ethyl)pi-peridine-1-carboxylate]
7 | 19 | Cc1cc(S(=O)(=O)N[C@H](C)C2CCNCC2)c(C)cc1NC(=O)c1ccccc1C [Compound 171A, (R)-N-(2,5-dimethyl-4-(N-(1-(piperidin-4-yl)ethyl)sulfamoyl)phen-yl)-2-methylbenzamide hydrochloride]
8 | 3 | Cc1ccc(C(=O)Nc2ccc(S(=O)(=O)N[C@H](C)C3CCNCC3)cc2C)c(C)c1 [Compound 259A, (R)-2,4-dimethyl-N-(2-methyl-4-(N-(1-(piperidin-4-yl)ethyl)sulfamoyl)phenyl)benzamide hydrochloride]
9 | > 10000 | CC(NS(=O)(=O)c1ccc2c(c1)C(=O)NC2=O)C1CC2CCC1CC2 (centres unmarked) [Compound 137, N-(1-(bicyclo[2.2.2]octan-2-yl)ethyl)-1,3-dioxoisoindoline-5-sulfonamide]
10 | 40 | Cc1cc(S(=O)(=O)N[C@H](C)C2CCNCC2)ccc1NC(=O)Cc1ccccc1 [Compound 207A, (R)-N-(2-methyl-4-(N-(1-(piperidin-4-yl)ethyl)sulfamoyl)phenyl)-2-phenylacetamide hydrochloride]
11 | 2 | Cc1cc(S(=O)(=O)N[C@H](C)C2CCNCC2)ccc1NC(=O)c1ccc(Cl)cc1C [Compound 256A, (R)-4-chloro-2-methyl-N-(2-methyl-4-(N-(1-(piperidin-4-yl)ethyl)sulfamoyl)phenyl)benzamide hydrochloride]
12 | > 10000 | Cc1ccccc1C(=O)Nc1ccc(S(=O)(=O)Nc2ccc3c(c2)CCN(C(=O)CN(C)C)C3)c2ccccc12 [Compound 42, N-(4-(N-(2-(2-(dimethylamino)acetyl)-1,2,3,4-tetrahydroisoquinolin-6-yl)sulfamoyl)naphthalen-1-yl)-2-methylbenzamide]
13 | > 10000 | Cc1ccccc1C(=O)Nc1ccc(S(=O)(=O)N[C@H](C)C2CCN(C(=O)OC(C)(C)C)CC2)cc1C#N [Compound 193, (R)-tert-butyl 4-(1-(3-cyano-4-(2-methylbenzamido)phenylsulfonamido)ethyl) piperidine-1-carboxylate]
14 | 613 | CC(NS(=O)(=O)c1ccc(-c2[nH]nnc2-c2ccccc2)c2ccccc12)C1CCCCC1 (centres unmarked) [Compound 148, N-(1-cyclohexylethyl)-4-(4-phenyl-1H-1,2,3-triazol-5-yl)naphthalene-1-sulfonamide]
